Source: patent publication US20100179158A1, “INHIBITORS OF CYCLIC AMP PHOSPHODIESTERASES” (priority 2007, published 2010)
“Also recorded” adds a separate entry of the source.

Legend:
[1] = molecular target: T1, PDE4D3 (Homo sapiens, UniProt Q08499); assay: IC50 on PDE4D3; type: biochemical; details: read-out: IC50, PDE 4D3
T1 construct: targets used in the assays are full-length proteins (as opposed to simply the catalytic domain); expressed in transfected cells; host or cells: Schizosaccharomyces pombe, gene integrated at the cgs2 locus

[2] = molecular target: T2, PDE4A1 (Mus musculus, UniProt O89084); assay: cAMP assay in yeast strain expressing PDE4A1; type: cell-based, murine
T2 construct: targets used in the assays are full-length proteins (as opposed to simply the catalytic domain); expressed in transfected cells; host or cells: Schizosaccharomyces pombe, gene integrated at the cgs2 locus
T2 sequence (O89084 1-610 isoform O89084-2): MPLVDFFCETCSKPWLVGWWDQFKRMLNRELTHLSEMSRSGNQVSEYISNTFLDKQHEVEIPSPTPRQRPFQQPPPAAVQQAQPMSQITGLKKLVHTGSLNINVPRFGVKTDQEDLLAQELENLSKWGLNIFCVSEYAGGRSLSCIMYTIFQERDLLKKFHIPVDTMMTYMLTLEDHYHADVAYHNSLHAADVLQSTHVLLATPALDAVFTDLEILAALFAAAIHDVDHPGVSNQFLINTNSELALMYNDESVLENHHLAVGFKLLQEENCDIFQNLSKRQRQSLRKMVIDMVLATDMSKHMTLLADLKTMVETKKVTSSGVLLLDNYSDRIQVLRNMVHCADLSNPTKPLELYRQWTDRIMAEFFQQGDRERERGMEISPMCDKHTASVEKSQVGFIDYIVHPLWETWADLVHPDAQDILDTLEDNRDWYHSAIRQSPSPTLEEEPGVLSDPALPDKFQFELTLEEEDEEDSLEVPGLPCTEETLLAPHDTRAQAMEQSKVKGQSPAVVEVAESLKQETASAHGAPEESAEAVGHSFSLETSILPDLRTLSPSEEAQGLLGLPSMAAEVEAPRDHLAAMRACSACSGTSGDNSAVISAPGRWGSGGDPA

[3] = molecular target: T1, PDE4D3; assay: cAMP assay in yeast strain expressing PDE4D3; type: cell-based
[4] = molecular target: T2, PDE4A1; assay: IC50 on PDE4A1; type: biochemical, murine; details: read-out: IC50, PDE 4A1
[5] = molecular target: T3, PDE4B3 (Mus musculus, UniProt Q8VBU5); assay: cAMP assay in yeast strain expressing PDE4B3; type: cell-based, murine
T3 construct: targets used in the assays are full-length proteins (as opposed to simply the catalytic domain); expressed in transfected cells; host or cells: Schizosaccharomyces pombe, gene integrated at the cgs2 locus
T3 sequence (Q8VBU5 1-721): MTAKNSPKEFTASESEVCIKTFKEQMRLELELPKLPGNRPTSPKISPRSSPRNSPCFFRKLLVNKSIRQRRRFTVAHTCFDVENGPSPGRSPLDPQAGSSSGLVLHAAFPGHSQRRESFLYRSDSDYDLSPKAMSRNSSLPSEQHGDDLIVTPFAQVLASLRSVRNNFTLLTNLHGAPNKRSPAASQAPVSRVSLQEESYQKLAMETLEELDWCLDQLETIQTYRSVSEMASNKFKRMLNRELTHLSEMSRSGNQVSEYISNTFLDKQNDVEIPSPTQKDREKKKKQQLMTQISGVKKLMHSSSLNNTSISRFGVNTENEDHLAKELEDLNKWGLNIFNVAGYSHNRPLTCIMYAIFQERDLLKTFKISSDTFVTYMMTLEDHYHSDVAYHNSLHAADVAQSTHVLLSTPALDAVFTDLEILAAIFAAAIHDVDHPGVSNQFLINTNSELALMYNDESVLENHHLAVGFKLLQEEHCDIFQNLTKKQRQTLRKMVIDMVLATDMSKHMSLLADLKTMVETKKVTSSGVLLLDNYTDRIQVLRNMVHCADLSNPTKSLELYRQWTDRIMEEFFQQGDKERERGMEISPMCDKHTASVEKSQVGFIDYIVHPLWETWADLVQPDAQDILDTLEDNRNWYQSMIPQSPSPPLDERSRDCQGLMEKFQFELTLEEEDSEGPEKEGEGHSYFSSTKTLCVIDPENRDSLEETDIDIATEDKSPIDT

[6] = molecular target: T4, PDE4A5 (Rattus norvegicus, UniProt P54748); assay: cAMP assay in yeast strain expressing PDE4A5; type: cell-based
T4 construct: targets used in the assays are full-length proteins (as opposed to simply the catalytic domain); expressed in transfected cells; host or cells: Schizosaccharomyces pombe, gene integrated at the cgs2 locus
T4 sequence (P54748 1-844): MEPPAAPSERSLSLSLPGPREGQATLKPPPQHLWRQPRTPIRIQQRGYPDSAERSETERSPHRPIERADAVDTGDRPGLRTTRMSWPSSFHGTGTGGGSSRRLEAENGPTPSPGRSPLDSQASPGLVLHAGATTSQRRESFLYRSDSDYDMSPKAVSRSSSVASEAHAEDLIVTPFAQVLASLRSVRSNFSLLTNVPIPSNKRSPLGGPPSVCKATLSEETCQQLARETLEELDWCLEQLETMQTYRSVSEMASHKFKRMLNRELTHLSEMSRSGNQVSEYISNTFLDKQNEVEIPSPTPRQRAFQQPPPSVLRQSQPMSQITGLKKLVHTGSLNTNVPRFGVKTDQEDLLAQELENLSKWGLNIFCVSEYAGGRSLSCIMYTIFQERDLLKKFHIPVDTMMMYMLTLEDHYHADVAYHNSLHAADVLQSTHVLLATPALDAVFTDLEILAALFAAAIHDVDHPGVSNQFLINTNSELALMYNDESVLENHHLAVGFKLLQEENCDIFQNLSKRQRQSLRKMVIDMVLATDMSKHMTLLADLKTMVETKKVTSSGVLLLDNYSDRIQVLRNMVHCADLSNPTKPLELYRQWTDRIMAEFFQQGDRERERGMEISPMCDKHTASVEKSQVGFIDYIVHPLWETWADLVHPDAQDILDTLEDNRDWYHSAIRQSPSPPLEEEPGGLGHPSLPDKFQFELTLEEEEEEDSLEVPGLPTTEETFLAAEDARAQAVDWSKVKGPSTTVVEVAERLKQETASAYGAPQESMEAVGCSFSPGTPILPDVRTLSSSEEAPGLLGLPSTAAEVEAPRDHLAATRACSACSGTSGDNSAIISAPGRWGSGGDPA

[7] = system: PDE4A, PDE4B, PDE4D, PDE7A; assay: Overall PDE inhibitor profile from the yeast assays (table footnotes, summary); type: cell-based
Description: PDE inhibitors were identified using methods described herein, such as high throughput drug screens on genetically engineered fission yeast strains that express drug targets (e.g., PDE4A and/or PDE4B, which are anti-inflammatory targets). PDE inhibitors were identified based on their ability to stimulate growth and compounds were identified because they were effective in live cells. In addition, targets used in the assays are full-length proteins (as opposed to simply the catalytic domain) and the assay used included a built-in toxicity test, permeability test and stability test. The inhibitors identified display a very high degree of target specificity. Compounds identified include inhibitors that act on two of three PDE4 family enzymes and inhibitors that act on combinations of PDE4 and PDE7 strains. […] Limited inhibition of PDE4D by a PDE inhibitor is desirable, in view of the fact that inhibition of PDE4D causes emesis and cardiac arrhythmias. Subtype specificity was confirmed by means of cAMP assays.
Cells were pregrown in EMM medium [MP Biomedicals (Solon, OH), 3% glucose, filter-sterilized to avoid carmelization, which would introduce variability into the optical density of the medium] containing from 0 mM to 2.5 mM cAMP (or either 0.5 mM or 1.0 mM cGMP). This was to repress expression of the fbp1-ura4 reporter prior to exposure of cells to 5FOA medium. Cells were grown at 30° C. to exponential phase (approximately 10^7 cells/ml). Cells were collected by centrifugation and resuspended in 5FOA medium, and 25 μl were transferred to 384-well microtiter dishes (untreated, with flat clear bottoms) that had been pre-filled with 25 μl 5FOA medium and pre-pinned with 100 nl of compounds (stock solutions were generally 10 mM). Starting cell concentrations ranged from 0.5×10^5 to 4×10^5 cells/ml depending on the screening strain. […] Other positive control dishes contained 5 mM cAMP in the 5FOA medium for PDEs that lack appropriate control compounds. Cultures were grown for 48 hours at 30° C., sealed in an airtight container with moist paper towels to prevent evaporation. Optical densities (OD600) of cultures were measured using a microplate reader. Bioinformatic analysis of the results to determine composite Z scores was performed as previously described (1, 3).

[8] = molecular target: T5, PDE4D2 (Homo sapiens, UniProt Q08499); assay: cAMP assay in yeast strain expressing PDE4D2; type: cell-based
T5 construct: targets used in the assays are full-length proteins (as opposed to simply the catalytic domain); expressed in transfected cells; host or cells: Schizosaccharomyces pombe
T5 sequence (Q08499 303-809): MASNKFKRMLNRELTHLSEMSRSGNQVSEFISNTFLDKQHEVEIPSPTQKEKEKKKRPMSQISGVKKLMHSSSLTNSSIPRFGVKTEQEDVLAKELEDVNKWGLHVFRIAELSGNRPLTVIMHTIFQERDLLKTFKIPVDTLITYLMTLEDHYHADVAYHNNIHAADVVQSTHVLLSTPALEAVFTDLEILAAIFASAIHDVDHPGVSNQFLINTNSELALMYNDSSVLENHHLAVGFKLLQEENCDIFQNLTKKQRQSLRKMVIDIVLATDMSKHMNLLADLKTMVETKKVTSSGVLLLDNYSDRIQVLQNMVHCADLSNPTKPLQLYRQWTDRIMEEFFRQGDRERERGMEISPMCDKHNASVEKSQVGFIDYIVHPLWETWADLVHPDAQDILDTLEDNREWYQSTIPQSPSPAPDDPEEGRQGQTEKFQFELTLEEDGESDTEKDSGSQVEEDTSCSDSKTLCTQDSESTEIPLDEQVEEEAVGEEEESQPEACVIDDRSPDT

T1 sequence (Q08499 1-673 isoform Q08499-2): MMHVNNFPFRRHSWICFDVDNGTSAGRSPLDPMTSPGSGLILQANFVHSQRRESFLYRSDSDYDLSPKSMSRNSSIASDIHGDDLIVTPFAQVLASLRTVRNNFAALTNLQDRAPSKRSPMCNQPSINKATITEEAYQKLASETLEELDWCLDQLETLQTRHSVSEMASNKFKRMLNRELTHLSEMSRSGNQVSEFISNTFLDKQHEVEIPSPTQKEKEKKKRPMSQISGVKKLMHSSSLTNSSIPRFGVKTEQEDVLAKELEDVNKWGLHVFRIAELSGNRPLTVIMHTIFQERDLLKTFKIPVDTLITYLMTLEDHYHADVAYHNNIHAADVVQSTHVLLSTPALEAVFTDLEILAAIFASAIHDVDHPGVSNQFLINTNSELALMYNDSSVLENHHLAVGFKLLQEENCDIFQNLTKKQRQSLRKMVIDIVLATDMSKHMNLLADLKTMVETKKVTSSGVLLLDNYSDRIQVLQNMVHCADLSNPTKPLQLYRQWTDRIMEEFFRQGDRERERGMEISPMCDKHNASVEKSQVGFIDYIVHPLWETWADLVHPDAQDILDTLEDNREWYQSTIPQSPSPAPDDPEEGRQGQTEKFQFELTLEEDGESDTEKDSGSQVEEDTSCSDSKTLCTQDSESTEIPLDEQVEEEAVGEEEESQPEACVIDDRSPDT

Cc1cc(C)nc(SCCS(=O)(=O)c2ccc(C(C)(C)C)cc2)n1 [Compound 26]
IC50 [1]: 500 nM
cAMP Response (% rolipram), PDE 4A1 [2]: 96.00 % rolipram
cAMP Response (% rolipram), PDE 4D3 [3]: 14.00 % rolipram
IC50 [4]: 500 nM
cAMP Response (% rolipram), PDE 4B3 [5]: 92.00 % rolipram
cAMP Response (% rolipram), PDE 4A5 [6]: 57.30 % rolipram
PDE inhibitor profile in words (table footnote / summary) [7]: effective PDE4A/4B inhibitor that exhibits limited/essentially no inhibition of PDE4D; also recorded: effective PDE4A/4B inhibitor; also recorded: little or no inhibition of PDE4D; also recorded: (1) Strong PDE4A, 4B inhibitor
cAMP Response (% rolipram), PDE 4D2 [8]: ND ND ND 17.00 ND % rolipram
